Data from patent US20240389885A1, “DAILY FASTING METHANE TO DETECT INTESTINAL METHANOGEN OVERGROWTH AND MONITOR TREATMENT RESPONSE” (Cedars-Sinai Medical Center, priority 2021, published 2024).

Experiments:
[1] = system: canine small bowel transit; conditions: infusion of CH4, canine; cited from earlier work
[2] = system: subjects with IBS-C and IMO; experiment: EASE-DO randomized double-blind placebo-controlled trial (NCT03763175); format: in vivo, human; conditions: 14-week trial, adult patients with IBS-C and IMO, single daily oral doses vs placebo
Text: To evaluate the accuracy and temporal stability of SMM, and to assess its correlation with stool M. smithii loads, we analyzed data from a randomized double-blind placebo-controlled trial: Efficacy and Safety of Single, Daily Oral Doses of SYN-010 Compared to Placebo in Adult Patients with IBS-C (EASE-DO, NCT03763175).
Trial details: Efficacy and Safety of Single, Daily Oral Doses of SYN-010 Compared to Placebo in Adult Patients with IBS-C (EASE-DO, NCT03763175) was a 14-week single-center randomized double-blind placebo-controlled trial evaluating the effects of lovastatin lactone on subjects with IBS-C and IMO. Subjects were excluded if they were on statins, fibrates, niacin, narcotics, laxatives, tegaserod, lubiprostone, linaclotide, metoclopramide, prucalopride, domperidone, plecanatide, CandiBactin, Atrantil, Allimax/Allimed, antibiotics within 2 months and opioids within 3 months prior to the study. If subjects were on probiotics or fiber supplements, they were asked to not change their dose. […] All subjects enrolled in this study completed a 2-hour breath test at their initial visit and their weekly complete spontaneous bowel movement (CSBM) and spontaneous bowel movement (SBM) were recorded. After recording their baseline CSBM and SBM for 2 weeks, subjects returned to the lab and their SMM and stool samples were collected (FIG. 1). […]

Row | SMILES | effect on small bowel transit [1] | primary endpoint, interim futility analysis [2]
1 | C [CH4, methane] | slows canine small bowel transit | 
2 | CC[C@H](C)C(=O)O[C@H]1C[C@@H](C)C=C2C=C[C@H](C)[C@H](CC[C@@H]3C[C@@H](O)CC(=O)O3)[C@H]21 [SYN-010, lovastatin lactone] |  | not meeting the primary endpoint
